Legend:
[1] = system: TNF-α release in THP-1 cells, LPS stimulation; test: SYK independent TNF-α release assay (LPS stimulation); assay type: cell-based, human
Protocol: For SYK independent TNF-α release assay (i.e., via lipopolysaccharide (LPS)-stimulation), THP-1 cells derived from human monocytic cells were obtained from the American Type Culture Collection (ATCC, Manassas, Va.). This cell line was maintained with an RPMI medium (GIBCO™) containing 10 fetal bovine serum (FBS, GIBCO™) and 0.05 mM 2-mercaptoethanol. The THP-1 cells were seeded at 1×10^5 cells/100 μL/well into 96-well culture plates, and treated with lipopolysaccharide (1 μg/ml), and serially diluted compound was then added. After an 18-hour incubation period at 37° C., supernatants were collected for the determination of the TNF-α level by ELISA, and the remaining cells were subjected to an MTT assay to determine the cytotoxic effects of compound.

AURKA = biological target: T1, AURKA (Homo sapiens, UniProt O14965); test: In vitro kinase inhibition, Ambit Biosciences panel; assay type: binding; conditions: lower numbers indicate stronger activities
T1 construct: purchased Ambit Biosciences
Protocol: (§1) Up to 518 different kinases have been identified in humans. They act on small molecules such as lipids, carbohydrates, amino acids, and nucleotides. To determine the scope of inhibitory effects of a representative compound of Formula (I) on known kinases, Compound 6 was tested against 104 commercially available kinases (Ambit Biosciences™) in vitro. 104 kinases included ABL1(E255K)-phosphorylated, ABL1(T315I)-phosphorylated, ABL1-phosphorylated, ACVR1B, ADCK3, AKT1, AKT2, ALK, AURKA, AURKB, AXL, BMPR2, BRAF, BRAF(V600E), BTK, CDK11, CDK2, CDK3, CDK7, CDK9, CHEK1, CSF1R, CSNK1D, CSNK1G2, DCAMKL1, DYRK1B, EGFR, EGFR(L858R), EPHA2, ERBB2, ERBB4, ERK1, FAK, FGFR2, FGFR3, FLT1, FLT3, FLT4, GSK3B, IGF1R, IKK-α, IKK-β, INSR, JAK2(JH1domain-catalytic), JAK3(JH1domain-catalytic), JNK1, JNK2, JNK3, KIT, KIT(D816V), KIT(V559D,T670I), LKB1, LRRK2, LRRK2(G2019S), MAP3K4, MAPKAPK2, MARK3, MEK1, MEK2, MET, MKNK1, MKNK2, MLK1, MTOR, p38-alpha, p38-beta, PAK1, PAK2, PAK4, PCTK1, PDGFRA, PDGFRB, PDPK1, PIK3C2B, PIK3CA, PIK3CG, PIM1, PIM2, PIM3, PKAC-alpha, PLK1, PLK3, PLK4, PRKCE, PYK2, RAFT, RET, RIOK2, ROCK2, RSK2, SNARK, SRC, SRPK3, SYK, TAK1, TGFBR1, TIE2, TRKA, TSSK1B, TYK2(JH1domain-catalytic), ULK2, VEGFR2, YANK3 and ZAP70.
(§2) Inhibition activity of Compound 6 was reported as percent control where lower numbers indicate stronger activities. […] Conventionally, the percent control of less than 35 is deemed to be significant inhibition of kinase activity as the numeric value 35 is frequently used as a threshold.

JAK3 = biological target: T2, JAK3 (Homo sapiens, UniProt P52333); test: as above; assay type: binding; conditions: lower numbers indicate stronger activities
T2 construct: JAK2(JH1domain-catalytic), JAK3(JH1domain-catalytic); purchased Ambit Biosciences
Protocol: as §1, §2

JNK1 = biological target: T3, JNK1 (Homo sapiens, UniProt P45983); test: as above; assay type: binding; conditions: lower numbers indicate stronger activities
T3 construct: purchased Ambit Biosciences
Protocol: as §1, §2

JNK2 = biological target: T4, JNK2 (Homo sapiens, UniProt P45984); test: as above; assay type: binding; conditions: lower numbers indicate stronger activities
T4 construct: purchased Ambit Biosciences
Protocol: as §1, §2

KIT = biological target: T5, KIT (Homo sapiens, UniProt P10721); test: as above; assay type: binding; conditions: lower numbers indicate stronger activities
T5 construct: purchased Ambit Biosciences
Protocol: as §1, §2

PAK4 = biological target: T6, PAK4 (Homo sapiens, UniProt O96013); test: as above; assay type: binding; conditions: lower numbers indicate stronger activities
T6 construct: purchased Ambit Biosciences
Protocol: as §1, §2

SNARK = biological target: T7, SNARK (Homo sapiens, UniProt Q9H093); test: as above; assay type: binding; conditions: lower numbers indicate stronger activities
T7 construct: purchased Ambit Biosciences
Protocol: as §1, §2

SRPK3 = biological target: T8, SRPK3 (Homo sapiens, UniProt Q9UPE1); test: as above; assay type: binding; conditions: lower numbers indicate stronger activities
T8 construct: purchased Ambit Biosciences
Protocol: as §1, §2

TYK2 = biological target: T9, TYK2 (Homo sapiens, UniProt P29597); test: as above; assay type: binding; conditions: lower numbers indicate stronger activities
T9 construct: TYK2(JH1domain-catalytic); purchased Ambit Biosciences
Protocol: as §1, §2

SR = test: cells; assay type: cell-based; conditions: SR (Leukemia)
HOP-62 = test: cells; assay type: cell-based; conditions: HOP-62 (NSCLC)
NCI-H226 = test: cells; assay type: cell-based; conditions: NCI-H226 (NSCLC)
SF-268 = test: cells; assay type: cell-based; conditions: SF-268 (CNS Cancer)
SF-539 = test: cells; assay type: cell-based; conditions: SF-539 (CNS Cancer)
SNB-19 = test: cells; assay type: cell-based; conditions: SNB-19 (CNS Cancer)
MALME-3M = test: cells; assay type: cell-based; conditions: MALME-3M (Melanoma)
M14 = test: cells; assay type: cell-based; conditions: M14 (Melanoma)
[2] = Homo sapiens, read-out: LC50 (the source's name)

T6 sequence (O96013 whole entry): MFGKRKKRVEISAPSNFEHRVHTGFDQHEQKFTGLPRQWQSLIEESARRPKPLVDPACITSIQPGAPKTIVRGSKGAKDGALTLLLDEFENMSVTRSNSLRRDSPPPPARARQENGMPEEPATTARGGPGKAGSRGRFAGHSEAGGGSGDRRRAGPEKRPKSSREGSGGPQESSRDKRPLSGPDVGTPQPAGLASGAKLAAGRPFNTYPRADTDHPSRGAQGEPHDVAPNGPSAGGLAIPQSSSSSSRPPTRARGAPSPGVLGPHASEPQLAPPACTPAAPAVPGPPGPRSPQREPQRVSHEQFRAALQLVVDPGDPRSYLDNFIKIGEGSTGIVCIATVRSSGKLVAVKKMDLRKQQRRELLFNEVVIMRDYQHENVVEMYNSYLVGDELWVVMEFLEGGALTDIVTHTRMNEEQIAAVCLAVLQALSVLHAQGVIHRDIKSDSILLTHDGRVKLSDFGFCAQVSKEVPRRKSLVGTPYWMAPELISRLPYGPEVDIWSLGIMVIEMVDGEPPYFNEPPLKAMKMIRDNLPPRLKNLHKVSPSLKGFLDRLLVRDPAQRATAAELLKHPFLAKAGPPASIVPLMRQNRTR
T9 sequence (P29597 897-1176 limits assumed): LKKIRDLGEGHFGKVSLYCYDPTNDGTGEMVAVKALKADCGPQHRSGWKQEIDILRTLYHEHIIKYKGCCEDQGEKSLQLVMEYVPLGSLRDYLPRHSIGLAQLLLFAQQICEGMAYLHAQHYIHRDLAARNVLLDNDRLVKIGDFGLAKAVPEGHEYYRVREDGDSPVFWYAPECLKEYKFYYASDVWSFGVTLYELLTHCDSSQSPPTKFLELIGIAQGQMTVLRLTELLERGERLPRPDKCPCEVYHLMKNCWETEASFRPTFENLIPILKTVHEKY
T4 sequence (P45984 whole entry): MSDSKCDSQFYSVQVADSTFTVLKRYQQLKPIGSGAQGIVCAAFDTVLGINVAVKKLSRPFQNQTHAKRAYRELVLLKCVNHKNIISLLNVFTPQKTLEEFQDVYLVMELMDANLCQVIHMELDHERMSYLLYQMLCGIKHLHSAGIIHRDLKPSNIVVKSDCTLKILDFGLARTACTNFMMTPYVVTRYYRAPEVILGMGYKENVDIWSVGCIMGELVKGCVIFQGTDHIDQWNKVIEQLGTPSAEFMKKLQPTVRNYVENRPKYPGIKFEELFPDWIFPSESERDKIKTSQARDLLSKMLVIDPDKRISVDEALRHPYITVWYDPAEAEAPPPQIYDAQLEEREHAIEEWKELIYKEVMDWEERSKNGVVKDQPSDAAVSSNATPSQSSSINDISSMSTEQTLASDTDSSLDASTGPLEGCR
T5 sequence (P10721 26-976): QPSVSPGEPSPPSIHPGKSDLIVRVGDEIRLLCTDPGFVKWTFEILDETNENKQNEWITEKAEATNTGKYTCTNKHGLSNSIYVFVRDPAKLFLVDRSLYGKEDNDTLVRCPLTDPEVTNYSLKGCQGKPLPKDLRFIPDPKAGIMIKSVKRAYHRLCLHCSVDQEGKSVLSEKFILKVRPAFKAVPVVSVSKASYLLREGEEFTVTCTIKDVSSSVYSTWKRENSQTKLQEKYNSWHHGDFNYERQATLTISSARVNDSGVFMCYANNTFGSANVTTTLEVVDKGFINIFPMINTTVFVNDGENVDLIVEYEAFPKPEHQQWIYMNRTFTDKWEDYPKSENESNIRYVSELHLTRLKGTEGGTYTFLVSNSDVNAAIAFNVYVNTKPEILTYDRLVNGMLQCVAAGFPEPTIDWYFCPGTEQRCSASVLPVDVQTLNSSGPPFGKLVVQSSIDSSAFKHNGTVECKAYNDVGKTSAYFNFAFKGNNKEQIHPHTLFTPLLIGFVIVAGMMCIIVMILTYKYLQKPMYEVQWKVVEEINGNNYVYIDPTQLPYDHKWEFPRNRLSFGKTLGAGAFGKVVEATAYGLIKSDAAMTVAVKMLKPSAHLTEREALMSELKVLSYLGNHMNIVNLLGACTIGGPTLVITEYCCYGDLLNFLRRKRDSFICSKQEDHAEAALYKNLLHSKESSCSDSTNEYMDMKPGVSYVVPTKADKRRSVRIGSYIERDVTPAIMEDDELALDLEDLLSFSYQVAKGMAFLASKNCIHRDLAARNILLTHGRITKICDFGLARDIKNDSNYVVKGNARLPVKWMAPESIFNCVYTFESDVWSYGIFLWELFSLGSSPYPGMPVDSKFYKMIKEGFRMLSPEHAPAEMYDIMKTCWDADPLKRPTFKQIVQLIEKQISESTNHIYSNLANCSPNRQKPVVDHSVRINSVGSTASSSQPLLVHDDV
T8 sequence (Q9UPE1 whole entry): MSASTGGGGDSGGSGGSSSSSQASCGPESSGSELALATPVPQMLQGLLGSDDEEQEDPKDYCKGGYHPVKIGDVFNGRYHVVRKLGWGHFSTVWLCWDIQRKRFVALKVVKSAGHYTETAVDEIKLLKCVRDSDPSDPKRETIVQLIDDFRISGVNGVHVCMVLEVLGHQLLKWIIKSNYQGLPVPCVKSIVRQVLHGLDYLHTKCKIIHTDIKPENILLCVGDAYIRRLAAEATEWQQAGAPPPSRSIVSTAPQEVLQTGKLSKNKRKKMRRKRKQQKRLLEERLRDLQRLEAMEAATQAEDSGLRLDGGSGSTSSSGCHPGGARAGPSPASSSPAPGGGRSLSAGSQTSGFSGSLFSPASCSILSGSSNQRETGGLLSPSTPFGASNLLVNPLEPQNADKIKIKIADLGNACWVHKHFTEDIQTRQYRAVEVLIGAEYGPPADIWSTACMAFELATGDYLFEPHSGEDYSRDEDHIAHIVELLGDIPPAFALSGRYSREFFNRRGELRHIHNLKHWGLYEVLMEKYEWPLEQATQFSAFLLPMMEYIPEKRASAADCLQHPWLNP
T2 sequence (P52333 822-1111 limits assumed): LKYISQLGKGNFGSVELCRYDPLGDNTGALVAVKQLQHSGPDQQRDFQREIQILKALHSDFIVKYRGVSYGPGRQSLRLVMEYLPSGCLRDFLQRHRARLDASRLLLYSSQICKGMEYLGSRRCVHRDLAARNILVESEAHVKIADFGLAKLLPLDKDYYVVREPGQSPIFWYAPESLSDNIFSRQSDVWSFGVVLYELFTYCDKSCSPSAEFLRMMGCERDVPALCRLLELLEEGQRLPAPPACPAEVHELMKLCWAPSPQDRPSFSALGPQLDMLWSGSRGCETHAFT
T1 sequence (O14965 whole entry): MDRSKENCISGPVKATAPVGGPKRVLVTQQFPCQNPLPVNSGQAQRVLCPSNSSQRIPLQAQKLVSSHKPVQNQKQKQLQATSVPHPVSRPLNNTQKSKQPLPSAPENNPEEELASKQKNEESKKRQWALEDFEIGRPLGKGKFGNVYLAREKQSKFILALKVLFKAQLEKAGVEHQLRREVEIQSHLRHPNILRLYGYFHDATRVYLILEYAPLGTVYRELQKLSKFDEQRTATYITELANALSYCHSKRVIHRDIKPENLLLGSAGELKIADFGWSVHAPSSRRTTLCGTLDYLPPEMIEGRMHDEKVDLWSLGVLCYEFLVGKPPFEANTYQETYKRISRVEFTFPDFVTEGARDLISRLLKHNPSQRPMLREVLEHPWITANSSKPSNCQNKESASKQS
T7 sequence (Q9H093 whole entry): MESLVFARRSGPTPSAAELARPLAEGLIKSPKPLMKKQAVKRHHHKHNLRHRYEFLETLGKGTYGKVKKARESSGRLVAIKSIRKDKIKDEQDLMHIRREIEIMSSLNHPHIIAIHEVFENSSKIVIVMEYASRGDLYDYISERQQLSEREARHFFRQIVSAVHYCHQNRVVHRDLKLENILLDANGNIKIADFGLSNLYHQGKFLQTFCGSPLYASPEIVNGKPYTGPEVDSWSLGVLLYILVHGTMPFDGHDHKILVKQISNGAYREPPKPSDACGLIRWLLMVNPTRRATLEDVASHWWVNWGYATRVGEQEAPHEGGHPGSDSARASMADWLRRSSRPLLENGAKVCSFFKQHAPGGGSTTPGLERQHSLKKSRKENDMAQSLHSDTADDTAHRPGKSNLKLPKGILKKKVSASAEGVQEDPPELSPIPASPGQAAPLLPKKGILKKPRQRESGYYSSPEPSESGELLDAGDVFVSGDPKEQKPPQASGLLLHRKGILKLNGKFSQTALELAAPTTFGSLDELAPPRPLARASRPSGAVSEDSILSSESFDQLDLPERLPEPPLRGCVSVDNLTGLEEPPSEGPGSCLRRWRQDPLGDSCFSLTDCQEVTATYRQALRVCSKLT
T3 sequence (P45983 whole entry): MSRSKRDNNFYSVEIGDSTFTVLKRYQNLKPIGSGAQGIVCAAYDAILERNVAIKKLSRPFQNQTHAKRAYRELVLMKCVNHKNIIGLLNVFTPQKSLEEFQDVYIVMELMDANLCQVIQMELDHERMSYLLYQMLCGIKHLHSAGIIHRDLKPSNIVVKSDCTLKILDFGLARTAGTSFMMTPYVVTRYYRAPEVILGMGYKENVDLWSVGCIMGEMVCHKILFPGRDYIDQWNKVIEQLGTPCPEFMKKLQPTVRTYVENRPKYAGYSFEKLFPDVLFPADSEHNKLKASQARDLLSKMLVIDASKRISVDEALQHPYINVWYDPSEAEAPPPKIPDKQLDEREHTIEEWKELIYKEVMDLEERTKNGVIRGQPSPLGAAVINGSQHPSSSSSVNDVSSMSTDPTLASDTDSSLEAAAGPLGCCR

## O=c1[nH]ccc2nc(N3CCC(O)CC3)nc(Nc3cccc(C(F)(F)F)c3)c12 [Compound 6, 2-(4-hydroxypiperidin-1-yl)-4-(3-(trifluoromethyl)phenylamino)pyrido[4,3-d]pyrimidine-5(6H)-one]
[1]; Homo sapiens, LPS stimulation, At 0.3 μM, THP-1, read-out: Inhibition of TNF-α Release (percentage inhibition)
  inhibition at 0.3 µM: 58%
[1]; Homo sapiens, LPS stimulation, At 1 μM, THP-1, read-out: Inhibition of TNF-α Release (percentage inhibition)
  inhibition at 1 µM: 68.9%
[1]; LPS stimulated release
  percentage inhibition of TNF-α release compared with dexamethasone: greater than or equal to those exhibited by dexamethasone
AURKA
  % inhibition (reported as percent control): 31%
JAK3
  % inhibition (reported as percent control): 4.4%
JNK1
  % inhibition (reported as percent control): 4.8%
JNK2
  % inhibition (reported as percent control): 25%
KIT
  % inhibition (reported as percent control): 11%
PAK4
  % inhibition (reported as percent control): 21%
SNARK
  % inhibition (reported as percent control): 3.6%
SRPK3
  % inhibition (reported as percent control): 2.6%
TYK2
  % inhibition (reported as percent control): 16%
SR; Homo sapiens
  GI50: 0.708 µM
  IC50: 2.51 µM
SR; [2]
  CC50: 100 µM
SR
  TGI: 26.9 µM
HOP-62
  TGI: 18.6 µM
HOP-62; Homo sapiens
  GI50: 4.37 µM
  IC50: 8.91 µM
HOP-62; [2]
  CC50: 79.4 µM
NCI-H226; Homo sapiens
  GI50: 3.24 µM
  IC50: 8.32 µM
NCI-H226; [2]
  CC50: 100 µM
NCI-H226
  TGI: 17.8 µM
SF-268; Homo sapiens
  GI50: 3.09 µM
  IC50: 12.9 µM
SF-268; [2]
  CC50: 100 µM
SF-268
  TGI: 35.5 µM
SF-539; Homo sapiens
  GI50: 5.25 µM
  IC50: 13.5 µM
SF-539; [2]
  CC50: 100 µM
SF-539
  TGI: 38.9 µM
SNB-19; Homo sapiens
  GI50: 18.2 µM
  IC50: 64.6 µM
SNB-19; [2]
  CC50: 100 µM
SNB-19
  TGI: 100 µM
MALME-3M; Homo sapiens
  GI50: 2.63 µM
  IC50: 9.77 µM
MALME-3M; [2]
  CC50: 32.4 µM
MALME-3M
  TGI: 7.94 µM
M14; Homo sapiens
  GI50: 1.55 µM
  IC50: 3.31 µM
M14; [2]
  CC50: 32.4 µM
M14
  TGI: 8.32 µM
